{"source": "patent US20130323303A1", "about": "“DRUG CARRIER AND PREPARATION METHOD THEREOF” (NATIONAL CHIAO TUNG UNIVERSITY, priority 2012, published 2013)", "tested_on": "tumor (transplanted cancer cells carrying fluorescent gene)", "assay": "Animal tumor model, tumor size recorded via in vivo imaging system (IVIS)", "conditions": "mouse model, after 28 days of drug treatment", "procedure": "Under the in vivo experiment of animal tumor model, first a mouse model treated with doxorubucin was prepared as the control group, and another mouse model treated with the oral drug carrier containing doxorubucin was prepared as the experimental group. After drug treatment, the mouse models were recorded the variation of tumor size via in vivo imaging system (IVIS) (because of the mice transplanted with the cancer cells carrying fluorescent gene).\nFIG. 6A and 6B are […] of the experimental group that the mouse model was treated with drug at 0 day and after 28 days. The tumor size of the mouse model in the experimental group was 65% compared to before treatment. FIG. 6C and 6D are IVIS photos of the control group that the mouse model was treated with drug at 0 day and after 28 days. […] FIG. 7 is a variation graph in fluorescence values of tumor cells tested by IVIS, and the tumor cells were from the above mouse model treated with drug."}
{"molecule": "COc1cccc2c1C(=O)c1c(O)c3c(c(O)c1C2=O)C[C@@](O)(C(=O)CO)C[C@@H]3O[C@H]1C[C@H](N)[C@H](O)[C@H](C)O1", "note": "[doxorubucin, doxorubicin]", "values": [{"measurement": "tumor size compared to before treatment", "result": 200, "unit": "%"}]}
